Source: patent US20140221499A1, “NOVEL RODENT CONTROL AGENTS AND USES THEREOF” (priority 2011, published 2014)

Experiments:
[1] = system: corticosterone levels in rat plasma; assay: Plasma corticosterone assay after odor exposure; type: in vivo; conditions: 30 min exposure, 10% amine or 2% TMT, 1 ml, ±SEM
Protocol: Avoidance to 2-phenylethylamine in rats was associated with acute changes in circulating levels of the stress hormone corticosterone.
Plasma corticosterone assay. […] Corticosterone levels were measured in duplicate using a competitive radioactive binding assay as described previously (Pryce C R, Bettschen D, Bahr N I, & Feldon J (2001) Comparison of the effects of infant handling, isolation, and nonhandling on acoustic startle, prepulse inhibition, locomotion, and HPA activity in the adult rat. Behav Neurosci 115(1):71-83).

mTAAR4 = biological target: T1, mTAAR4 (Mus musculus, UniProt Q5QD15); assay: CRE-SEAP reporter gene assay in HEK293 cells transfected with mTAAR4 (fusion with N-terminal sequence of bovine rhodopsin, 'Rho tag'); type: cell-based; conditions: FIG. 11B, mTAAR4 required a 'Rho tag' (N-terminal bovine rhodopsin sequence, first 20 amino acids), EC50 ± s.e.m., 4-parameter Hill equation
T1 construct: Full Taar coding regions were cloned into pcDNA3.1; expressed in transfected cells; host or cells: HEK293
T1 sequence (Q5QD15 with tags, fused parts or gaps): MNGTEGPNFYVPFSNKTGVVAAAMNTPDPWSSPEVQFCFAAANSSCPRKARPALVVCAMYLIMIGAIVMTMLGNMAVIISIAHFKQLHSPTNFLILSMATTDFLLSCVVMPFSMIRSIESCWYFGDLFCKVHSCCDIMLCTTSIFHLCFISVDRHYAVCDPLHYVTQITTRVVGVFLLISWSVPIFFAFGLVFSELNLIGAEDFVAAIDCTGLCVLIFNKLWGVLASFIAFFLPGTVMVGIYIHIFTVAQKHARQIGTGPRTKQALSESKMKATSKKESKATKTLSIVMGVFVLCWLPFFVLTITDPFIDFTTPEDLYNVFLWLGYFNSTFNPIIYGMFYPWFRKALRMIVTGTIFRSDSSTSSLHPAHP
Protocol: (A) HEK293 cells were transfected with TAAR4 and reporter plasmids, incubated with urine extracts of species indicated, and assayed for reporter activity (triplicates±SD). […] TAAR4 was expressed as a fusion protein with an N-terminal sequence of bovine rhodopsin, which provided enhanced signal (24). […] Urine (diluted 300- or 100-fold) or urine extracts (diluted 30-, 10-, or 3-fold) of species indicated were tested (triplicates±s.d.).
FIG. 11 illustrates the dose-dependent responses of TAARs to amines. […] EC50 values (±s.e.m, bottom right) were calculated using SigmaPlot (Systat Software) and a 4-parameter Hill equation.
Full Taar coding regions were cloned into pcDNA3.1-(Invitrogen) with or without a 5′ DNA extension of 69 bp encoding the first 20 amino acids of bovine rhodopsin followed by a cloning linker ([sequence]). […] Fluorescence was measured on an EnVision plate reader (Perkin Elmer) and SEAP activity graphed as relative fluorescence of a phosphatase substrate.
HEK293 cells were co-transfected with TAAR expression plasmids and a cAMPdependent reporter gene encoding secreted alkaline phosphatase (CRE-SEAP). Transfected cells were incubated with urine extracts from different mammalian species, and phosphatase activity was quantified with a fluorescent substrate as a reporter for TAAR activation.

rTAAR7b = biological target: T2, rTAAR7b (Rattus norvegicus, UniProt Q923X8); assay: CRE-SEAP reporter gene assay in HEK293 cells transfected with rTAAR7b; type: cell-based; set-up: Full Taar coding regions were cloned into pcDNA3.1; expressed in transfected cells; host or cells: HEK293; conditions: FIG. 11A, rTAAR7b did not work with a 'Rho tag' (unmodified form), EC50 ± s.e.m., 4-parameter Hill equation
T2 sequence (Q923X8 1-358): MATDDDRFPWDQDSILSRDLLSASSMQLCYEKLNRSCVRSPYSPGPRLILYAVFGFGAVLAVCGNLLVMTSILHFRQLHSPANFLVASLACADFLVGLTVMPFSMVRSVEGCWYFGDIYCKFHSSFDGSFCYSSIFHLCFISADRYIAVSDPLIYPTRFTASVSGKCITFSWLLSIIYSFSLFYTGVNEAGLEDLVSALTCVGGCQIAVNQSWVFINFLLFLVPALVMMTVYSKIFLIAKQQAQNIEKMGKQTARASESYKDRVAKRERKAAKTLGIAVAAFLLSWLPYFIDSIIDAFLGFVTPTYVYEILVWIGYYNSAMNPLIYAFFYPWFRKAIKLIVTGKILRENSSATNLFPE
Protocol: FIG. 11 illustrates the dose-dependent responses of TAARs to amines. HEK293 cells were cotransfected with plasmids encoding CRE-SEAP and rTAARs (a) or mTAARs (b), incubated with concentrations of ligands indicated, and assayed for reporter activity (triplicates±s.d.). EC50 values (±s.e.m, bottom right) were calculated using SigmaPlot (Systat Software) and a 4-parameter Hill equation.
The following mixes (10 μM of each indicated compounds) were tested for their ability to activate rat TAARs. Mix 1: butylamine, dibutylamine, hexylamine. Mix 2: 2-aminopentane, isoamylamine, isobutylamine, isopropylamine. Mix 3: N,N-dimethylcyclohexylamine, 1-methylindole, tryptamine, phenylethylamine. Mix 4: indole, 1-methylpyrrolidine, 1-methylpiperidine, pyrrolidine. […]
Full Taar coding regions were cloned into pcDNA3.1-(Invitrogen) with or without a 5′ DNA extension of 69 bp encoding the first 20 amino acids of bovine rhodopsin followed by a cloning linker ([…]). […] Fluorescence was measured on an EnVision plate reader (Perkin Elmer) and SEAP activity graphed as relative fluorescence of a phosphatase substrate.
Here, we set out to identify agonists for additional mouse and rat TAARs. […] Transfected cells were incubated with test chemicals, and phosphatase activity was quantified with a fluorescent substrate as a reporter for TAAR activation. […]

Row | Compound | plasma levels of corticosterone [1] | EC50 (mTAAR4) | EC50 (rTAAR7b)
1 | NCCc1ccccc1 [2-phenylethylamine] | 194 ± 18 ng/mL | 7.5 ± 3.7 µM | 
2 | CN(C)C1CCCCC1 [N,N-DIMETHYLCYCLOHEXYLAMINE, N,N-dimethylcyclohexylamine] |  |  | 33.2 ± 12.8 µM
